ChEMBL document CHEMBL3885861, “Open TG-GATES”

Organism: Rattus norvegicus
Test: Open TG-GATES - Regimen: Daily Repeat
Type: toxicity, organism-based, Sprague-Dawley
Set-up: regimen Daily Repeat, gender Male, age 6 weeks
Settings: in vivo, po, 0 mg/kg, route gavage, dose level Control; for APTT / Bas / Eos / Fbg / Hb / Ht / Lym / MCH / MCHC / MCV / Mono / Neu / PT / Plat / RBC / Ret / WBC: tissue Blood; for KIDNEY_L / KIDNEY_R / KIDNEY_TOTAL: tissue Kidney; for LIVER: tissue Liver; for A/G / ALP / ALT / AST / BUN / CRE / Ca / Cl / DBIL / GLC / IP / K / LDH / Na / PL / RALB / TBIL / TC / TG / TP / gamma-GTP: tissue Plasma

SMILES: O=NN(CCCl)C(=O)NC1CCCCC1 [LOMUSTINE]
- TERMINAL_BW (72 h, time 3 day): 220.6 g
- APTT (72 h, time 3 day): 17.7 s
- Bas (72 h, time 3 day): 0%
- Eos (72 h, time 3 day): 0.6%
- Fbg (72 h, time 3 day): 234 mg/dL
- Hb (72 h, time 3 day): 13.5 g/dL
- Ht (72 h, time 3 day): 40.6%
- Lym (72 h, time 3 day): 76.8%
- MCH (72 h, time 3 day): 21.8 pg
- MCHC (72 h, time 3 day): 33.3%
- MCV (72 h, time 3 day): 65.5 fL
- Mono (72 h, time 3 day): 6.4%
- Neu (72 h, time 3 day): 16.2%
- PT (72 h, time 3 day): 11.8 s
- Plat (72 h, time 3 day): 108.6 x10_4/uL
- RBC (72 h, time 3 day): 619.4 x10_4/ul
- Ret (72 h, time 3 day): 7.2%
- WBC (72 h, time 3 day): 131.9 x10_2/uL
- KIDNEY_L (72 h, time 3 day): 1 g
- KIDNEY_R (72 h, time 3 day): 1 g
- KIDNEY_TOTAL (72 h, time 3 day): 2 g
- LIVER (72 h, time 3 day): 10.5 g
- A/G (72 h, time 3 day): 2
- ALP (72 h, time 3 day): 1042.6 IU/L
- ALT (72 h, time 3 day): 33.6 IU/L
- AST (72 h, time 3 day): 69.4 IU/L
- BUN (72 h, time 3 day): 18 mg/dL
- CRE (72 h, time 3 day): 0.5 mg/dL
- Ca (72 h, time 3 day): 11 mg/dL
- Cl (72 h, time 3 day): 104.4 meq/L
- DBIL (72 h, time 3 day): 0.006 mg/dL
- GLC (72 h, time 3 day): 186.2 mg/dL
- IP (72 h, time 3 day): 8.5 mg/dL
- K (72 h, time 3 day): 5.1 meq/L
- LDH (72 h, time 3 day): 99.8 IU/L
- Na (72 h, time 3 day): 140 meq/L
- PL (72 h, time 3 day): 147.6 mg/dL
- RALB (72 h, time 3 day): 3.9 g/dL
- TBIL (72 h, time 3 day): 0.4 mg/dL
- TC (72 h, time 3 day): 74.8 mg/dL
- TG (72 h, time 3 day): 114.6 mg/dL
- TP (72 h, time 3 day): 5.9 g/dL
- gamma-GTP (72 h, time 3 day): 2 IU/L
- TERMINAL_BW ([…], time 7 day): 258.9 g
- TERMINAL_BW ([…], time 14 day): 305.2 g
- TERMINAL_BW ([…], time 28 day): 379.6 g
- APTT ([…], time 7 day): 17.7 s
- Bas ([…], time 7 day): 0%
- Eos ([…], time 7 day): 1%
- Fbg ([…], time 7 day): 241.8 mg/dL
- Hb ([…], time 7 day): 13.4 g/dL
- Ht ([…], time 7 day): 40.2%
- Lym ([…], time 7 day): 79.6%
- MCH ([…], time 7 day): 21.8 pg
- MCHC ([…], time 7 day): 33.4%
- MCV ([…], time 7 day): 65.2 fL
- Mono ([…], time 7 day): 6%
- Neu ([…], time 7 day): 14.2%
- PT ([…], time 7 day): 11.4 s
- Plat ([…], time 7 day): 107.5 x10_4/uL
- RBC ([…], time 7 day): 617.4 x10_4/ul
- Ret ([…], time 7 day): 7.2%
- WBC ([…], time 7 day): 161 x10_2/uL
- APTT ([…], time 14 day): 16.7 s
- Bas ([…], time 14 day): 0%
- Eos ([…], time 14 day): 0.4%
- Fbg ([…], time 14 day): 224.4 mg/dL
- Hb ([…], time 14 day): 14.1 g/dL
- Ht ([…], time 14 day): 42%
- Lym ([…], time 14 day): 80.8%
- MCH ([…], time 14 day): 20.3 pg
- MCHC ([…], time 14 day): 33.5%
- MCV ([…], time 14 day): 60.7 fL
- Mono ([…], time 14 day): 6.8%
- Neu ([…], time 14 day): 11.8%
- PT ([…], time 14 day): 11.4 s
- Plat ([…], time 14 day): 119.2 x10_4/uL
- RBC ([…], time 14 day): 693.2 x10_4/ul
- Ret ([…], time 14 day): 4.9%
- WBC ([…], time 14 day): 145.5 x10_2/uL
- APTT ([…], time 28 day): 17.5 s
- Bas ([…], time 28 day): 0%
- Eos ([…], time 28 day): 1%
- Fbg ([…], time 28 day): 250.6 mg/dL
- Hb ([…], time 28 day): 15 g/dL
- Ht ([…], time 28 day): 44.9%
- Lym ([…], time 28 day): 82.8%
- MCH ([…], time 28 day): 19.2 pg
- MCHC ([…], time 28 day): 33.5%
- MCV ([…], time 28 day): 57.3 fL
- Mono ([…], time 28 day): 5.4%
- Neu ([…], time 28 day): 10.8%
- PT ([…], time 28 day): 11.9 s
- Plat ([…], time 28 day): 107.1 x10_4/uL
- RBC ([…], time 28 day): 783 x10_4/ul
- Ret ([…], time 28 day): 2.5%
- WBC ([…], time 28 day): 166.4 x10_2/uL
- KIDNEY_L ([…], time 7 day): 1.2 g
- KIDNEY_R ([…], time 7 day): 1.1 g
- KIDNEY_TOTAL ([…], time 7 day): 2.3 g
- KIDNEY_L ([…], time 14 day): 1.1 g
- KIDNEY_R ([…], time 14 day): 1.2 g
- KIDNEY_TOTAL ([…], time 14 day): 2.3 g
- KIDNEY_L ([…], time 28 day): 1.4 g
- KIDNEY_R ([…], time 28 day): 1.4 g
- KIDNEY_TOTAL ([…], time 28 day): 2.7 g
- LIVER ([…], time 7 day): 12.8 g
- LIVER ([…], time 14 day): 14.1 g
- LIVER ([…], time 28 day): 15.1 g
- A/G ([…], time 7 day): 1.8
- ALP ([…], time 7 day): 746 IU/L
- ALT ([…], time 7 day): 36.6 IU/L
- AST ([…], time 7 day): 59 IU/L
- BUN ([…], time 7 day): 19.2 mg/dL
- CRE ([…], time 7 day): 0.5 mg/dL
- Ca ([…], time 7 day): 10.9 mg/dL
- Cl ([…], time 7 day): 105.2 meq/L
- DBIL ([…], time 7 day): 0.012 mg/dL
- GLC ([…], time 7 day): 186 mg/dL
- IP ([…], time 7 day): 7.5 mg/dL
- K ([…], time 7 day): 4.9 meq/L
- LDH ([…], time 7 day): 85 IU/L
- Na ([…], time 7 day): 140.4 meq/L
- PL ([…], time 7 day): 168.2 mg/dL
- RALB ([…], time 7 day): 3.9 g/dL
- TBIL ([…], time 7 day): 0.3 mg/dL
- TC ([…], time 7 day): 90 mg/dL
- TG ([…], time 7 day): 113.2 mg/dL
- TP ([…], time 7 day): 6.1 g/dL
- gamma-GTP ([…], time 7 day): 1 IU/L
- A/G ([…], time 14 day): 2
- ALP ([…], time 14 day): 859 IU/L
- ALT ([…], time 14 day): 34 IU/L
- AST ([…], time 14 day): 63.4 IU/L
- BUN ([…], time 14 day): 20.2 mg/dL
- CRE ([…], time 14 day): 0.5 mg/dL
- Ca ([…], time 14 day): 11.3 mg/dL
- Cl ([…], time 14 day): 106.8 meq/L
- DBIL ([…], time 14 day): 0.014 mg/dL
- GLC ([…], time 14 day): 183 mg/dL
- IP ([…], time 14 day): 7.4 mg/dL
- K ([…], time 14 day): 4.7 meq/L
- LDH ([…], time 14 day): 85.6 IU/L
- Na ([…], time 14 day): 140.2 meq/L
- PL ([…], time 14 day): 167.6 mg/dL
- RALB ([…], time 14 day): 4 g/dL
- TBIL ([…], time 14 day): 0.3 mg/dL
- TC ([…], time 14 day): 81 mg/dL
- TG ([…], time 14 day): 118.6 mg/dL
- TP ([…], time 14 day): 6.2 g/dL
- gamma-GTP ([…], time 14 day): 2 IU/L
- A/G ([…], time 28 day): 1.6
- ALP ([…], time 28 day): 681.8 IU/L
- ALT ([…], time 28 day): 32.2 IU/L
- AST ([…], time 28 day): 63.4 IU/L
- BUN ([…], time 28 day): 19 mg/dL
- CRE ([…], time 28 day): 0.4 mg/dL
- Ca ([…], time 28 day): 10.8 mg/dL
- Cl ([…], time 28 day): 106 meq/L
- DBIL ([…], time 28 day): 0.012 mg/dL
- GLC ([…], time 28 day): 189.8 mg/dL
- IP ([…], time 28 day): 6.3 mg/dL
- K ([…], time 28 day): 4.6 meq/L
- LDH ([…], time 28 day): 86.4 IU/L
- Na ([…], time 28 day): 140 meq/L
- PL ([…], time 28 day): 148.4 mg/dL
- RALB ([…], time 28 day): 4 g/dL
- TBIL ([…], time 28 day): 0.3 mg/dL
- TC ([…], time 28 day): 71 mg/dL
- TG ([…], time 28 day): 122.2 mg/dL
- TP ([…], time 28 day): 6.4 g/dL
- gamma-GTP ([…], time 28 day): 1.8 IU/L
